The source of these data is US12060347B2 (BRISTOL-MYERS SQUIBB COMPANY, priority 2016, dated 2024).

The term IC50 denotes the concentration that gives 50% inhibition.

For this test, the target named is T1, human PAR4 (Homo sapiens, UniProt Q96RI0).
T1 construct: expressed in transfected cells; host or cells: HEK293 PAR4 Clone 1.2A (BMS Arctic ID 383940)
T1 sequence (Q96RI0 18-385): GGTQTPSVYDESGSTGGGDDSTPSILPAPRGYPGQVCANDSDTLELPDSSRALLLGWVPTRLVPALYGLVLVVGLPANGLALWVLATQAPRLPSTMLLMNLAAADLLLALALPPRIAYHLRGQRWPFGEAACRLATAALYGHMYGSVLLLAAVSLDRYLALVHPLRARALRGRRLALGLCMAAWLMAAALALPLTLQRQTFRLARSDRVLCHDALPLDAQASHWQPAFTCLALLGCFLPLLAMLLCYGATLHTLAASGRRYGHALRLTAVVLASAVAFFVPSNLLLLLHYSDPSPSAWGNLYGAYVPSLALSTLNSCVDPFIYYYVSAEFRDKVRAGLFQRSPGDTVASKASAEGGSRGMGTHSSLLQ
The experiment in a line: PAR4 FLIPR assay: antagonism of agonist-peptide-induced calcium mobilization in PAR4-expressing HEK293 cells. The class given is cell-based. The following applies: H-Ala-Phe(4-F)-[…]NH2-induced intracellular calcium mobilization, 11-point curves. In general terms: Calcium assays in cells follow changes in intracellular calcium, usually with a dye or a luminescent sensor.

As to `COC(=O)N1CCc2nc(-c3cc(C)cc4nc(OC(F)F)cnc34)sc2C1` [Example 62, methyl 2-(2-(difluoromethoxy)-7-methylquinoxalin-5-yl)-6,7-dihydrothiazolo[5,4-c]pyridine-5(4H)-carboxylate], the IC50 is 100 nM. With `COc1cc(C(O)C(F)(F)F)c2nc(-c3cc(C)cc4nc(OC)cnc34)sc2c1` (stereo not shown) [Example 174, 2,2,2-trifluoro-1-(6-methoxy-2-(2-methoxy-7-methylquinoxalin-5-yl)benzo[d]thiazol-4-yl)ethanol] the figure was 3 nM; with `COc1cnc2c(-c3nc4c(C)cc(OCCOC(=O)Nc5ccccc5)cc4s3)cc(C)cc2n1` [Example 110, 2-(2-(2-methoxy-7-methylquinoxalin-5-yl)-4-methylbenzo[d]thiazol-6-yloxy)ethyl phenylcarbamate], 12 nM. Take `COc1ccc2nc(-c3cc(CO)cc4nc(OC)cnc34)sc2c1` [Example 127]: the IC50 amounted to 8.3 nM. For `CNC(=O)c1cc(NC(=O)O[C@H](C)[C@H](C)Oc2cc3sc(-c4cc(C)cc5nc(OC)cnc45)nc3cc2F)ccn1` [Example 466, (2R,3S)-3-((5-fluoro-2-(2-methoxy-7-methylquinoxalin-5-yl)benzo[d]thiazol-6-yl)oxy)butan-2-yl (2-(methylcarbamoyl)pyridin-4-yl)carbamate], the IC50 came out at 0.7 nM. The result for `COc1cnc2c(-c3nc4cc(F)c(O[C@@H](C)[C@@H](C)OC(=O)Nc5cnc(C)nc5)cc4s3)cc(C)cc2n1` [Example 386, (2R,3S)-3-((5-fluoro-2-(2-methoxy-7-methylquinoxalin-5-yl)benzo[d]thiazol-6-yl)oxy)butan-2-yl (2-methylpyrimidin-5-yl)carbamate] reads 7.8 nM; that for `COCc1cnc2c(-c3nc4c(C)cc(OCCNC(=O)OCc5ccccc5)cc4s3)cc(C)cc2n1` [Example 92, Benzyl 2-(2-(2-(methoxymethyl)-7-methylquinoxalin-5-yl)-4-methylbenzo[d]thiazol-6-yloxy)ethylcarbamate], 2 nM. The result for `COc1cnc2c(-c3nc4cc(F)c(O[C@@H](C)[C@@H](C)OC(=O)Nc5ccnc(OCCC(C)(C)O)c5)nc4s3)cc(Cl)cc2c1` [Example 778, (2R,3S)-3-((2-(6-chloro-3-methoxyquinolin-8-yl)-6-fluorothiazolo[5,4-b]pyridin-5-yl)oxy) butan-2-yl (2-(3-hydroxy-3-methylbutoxy)pyridin-4-yl)carbamate] reads 3.4 nM. Regarding `COc1cnc2c(-c3nc4c(F)c(F)c(OCCNS(=O)(=O)c5cccc(F)c5)cc4s3)cc(C)cc2n1` [Example 316, N-(2-((4,5-difluoro-2-(2-methoxy-7-methylquinoxalin-5-yl)benzo[d]thiazol-6-yl)oxy)ethyl)-3-fluorobenzenesulfonamide], the IC50 amounted to 4.9 nM. Regarding `COc1cnc2c(-c3nc4cc(F)c(O[C@@H](C)[C@@H](C)OC(=O)Nc5cnc(C)nc5)cc4s3)cc(C)cc2c1` [Example 648, (2R,3S)-3-((5-fluoro-2-(3-methoxy-6-methylquinolin-8-yl)benzo[d]thiazol-6-yl)oxy)butan-2-yl (2-methylpyrimidin-5-yl)carbamate], the IC50 amounted to 3 nM. For `COc1cnc2c(-c3nc4cc(F)c(O[C@@H](C)[C@@H](C)OC(=O)Nc5cncc(F)c5)nc4s3)cc(Cl)cc2c1` [Example 776, (2R,3S)-3-((2-(6-chloro-3-methoxyquinolin-8-yl)-6-fluorothiazolo[5,4-b]pyridin-5-yl)oxy)butan-2-yl (5-fluoropyridin-3-yl)carbamate], the concentration for half-maximal inhibition (IC50) turned out to be 2.5 nM.

`COc1cnc2c(-c3nc4cc(F)c(O[C@@H](C)[C@@H](C)OC(=O)Nc5ccc(CC(C)(C)O)nc5)cc4s3)cc(C)cc2n1` [Example 559, (2R,3S)-3-((5-fluoro-2-(2-methoxy-7-methylquinoxalin-5-yl)benzo[d]thiazol-6-yl)oxy)butan-2-yl (6-(2-hydroxy-2-methylpropyl)pyridin-3-yl)carbamate]: the IC50 amounted to 0.9 nM. Consider `COCc1cnc2c(-c3nc4c(C)cc(OC)nc4s3)cc(C)cc2n1` [Example 181, 5-methoxy-2-(2-(methoxymethyl)-7-methylquinoxalin-5-yl)-7-methylthiazolo[5,4-b] pyridine], for which the IC50 is 1.2 nM. With `COc1cnc2c(-c3nc4c(C)cc(OCC(=O)O)cc4s3)cc(Cl)cc2n1` [Example 251, 2-((2-(7-chloro-2-methoxyquinoxalin-5-yl)-4-methylbenzo[d]thiazol-6-yl)oxy)acetic acid] the figure was 17 nM; with `COc1cnc2c(-c3nc4cc(F)c(O[C@@H](C)[C@@H](C)OC(=O)Nc5ccnc(CCO)c5)cc4s3)cc(C)cc2n1` [Example 547, (2R,3S)-3-((5-fluoro-2-(2-methoxy-7-methylquinoxalin-5-yl)benzo[d]thiazol-6-yl)oxy)butan-2-yl (2-(2-hydroxyethyl)pyridin-4-yl)carbamate], 5.2 nM. On to `COc1cnc2c(-c3nc4cc(F)c(O[C@@H](C)[C@@H](C)OC(N)=O)cc4s3)cc(C)cc2n1` [Example 524, (2R,3S)-3-((5-fluoro-2-(2-methoxy-7-methylquinoxalin-5-yl)benzo[d]thiazol-6-yl)oxy) butan-2-yl carbamate], for which the IC50 turned out to be 84 nM. Turning to `COc1cnc2c(-c3nc4cc(F)c(O[C@@H](C)[C@@H](C)OC(=O)Nc5ccc(C(=O)N(C)C)nc5)cc4s3)cc(Cl)cc2n1` [Example 834, (2R,3S)-3-((2-(7-chloro-2-methoxyquinoxalin-5-yl)-5-fluorobenzo[d]thiazol-6-yl)oxy)butan-2-yl (6-(dimethylcarbamoyl)pyridin-3-yl)carbamate], the IC50 stood at 3 nM. In the case of `COc1cnc2c(-c3nc4cc(F)c(O[C@@H](C)[C@@H](C)OC(=O)Nc5ccnc(C(=O)NCCC(C)(C)O)c5)cc4s3)cc(C)cc2n1` [Example 459, (2R,3S)-3-((5-fluoro-2-(2-methoxy-7-methylquinoxalin-5-yl)benzo[d]thiazol-6-yl)oxy)butan-2-yl (2-((3-hydroxy-3-methylbutyl)carbamoyl)pyridin-4-yl)carbamate], the IC50 amounted to 0.9 nM.

`COc1cnc2c(-c3nc4cc(F)c(OC[C@@H](C)OC(=O)Nc5cnc(OCCO)nc5)nc4s3)cc(C)cc2n1` [Example 685, (R)-1-((6-fluoro-2-(2-methoxy-7-methylquinoxalin-5-yl)thiazolo[5,4-b]pyridin-5-yl)oxy) propan-2-yl (2-(2-hydroxyethoxy)pyrimidin-5-yl)carbamate]: the half-inhibitory concentration (IC50) is 1.7 nM. Take `COc1cnc2c(-c3nc4cc(F)c(O[C@@H](C)[C@@H](C)OC(=O)Nc5cnc(C(=O)NC[C@H](C)O)nc5)nc4s3)cc(C)cc2n1` [Example 753, (2R,3S)-3-((6-fluoro-2-(2-methoxy-7-methylquinoxalin-5-yl)thiazolo[5,4-b]pyridin-5-yl)oxy)butan-2-yl (2-(((S)-2-hydroxypropyl)carbamoyl)pyrimidin-5-yl)carbamate]: the IC50 was 12 nM. As for `COc1cnc2c(-c3nc4c(Cl)cc(OCCNS(=O)(=O)c5ccccc5)cc4s3)cc(C)cc2n1` [Example 27, N-(2-((4-chloro-2-(2-methoxy-7-methylquinoxalin-5-yl)benzo[d]thiazol-6-yl)oxy)ethyl)benzenesulfonamide], the IC50 was 5.4 nM.

On to `COc1cnc2c(-c3nc4cc(F)c(O[C@@H](C)[C@@H](C)OC(=O)Nc5cnc(OCCC(C)(C)O)nc5)cc4s3)cc(C)cc2n1` [Example 570, (2R,3S)-3-((5-fluoro-2-(2-methoxy-7-methylquinoxalin-5-yl)benzo[d]thiazol-6-yl)oxy)butan-2-yl (2-(3-hydroxy-3-methylbutoxy)pyrimidin-5-yl)carbamate], for which the IC50 was 6.6 nM.

Take `COCc1cnc2c(-c3nc4c(s3)CCCC4)cc(C)cc2n1` [Example 144, 2-(2-(methoxymethyl)-7-methylquinoxalin-5-yl)-4,5,6,7-tetrahydrobenzo[d]thiazole]: the IC50 worked out at 0.3 nM. Regarding `Cc1cc(-c2nc3cccc(OCC(=O)Nc4ccccc4)c3s2)c2ncc(OC(F)F)nc2c1` [Example 82, 2-(2-(2-(difluoromethoxy)-7-methylquinoxalin-5-yl)benzo[d]thiazol-7-yloxy)-N-phenylacetamide], the 50% inhibitory concentration (IC50) was 280 nM. Consider `COCc1cnc2c(-c3nc4c(F)cc(OC)cc4s3)cc(C)cc2n1` [Example 254, 4-fluoro-6-methoxy-2-(2-(methoxymethyl)-7-methylquinoxalin-5-yl)benzo[d]thiazole], for which the IC50 stood at 1.5 nM. The result for `COc1cnc2c(-c3nc4cc(F)c(O[C@@H](C)[C@@H](C)OC(=O)Nc5cnc(C)nc5)nc4s3)cc(C)cc2c1` [Example 791, (2R,3S)-3-((6-fluoro-2-(3-methoxy-6-methylquinolin-8-yl)thiazolo[5,4-b]pyridin-5-yl)oxy)butan-2-yl (2-methylpyrimidin-5-yl)carbamate] reads 2.3 nM. For `COc1cnc2c(-c3nc4cc(F)c(O[C@@H](C)[C@@H](C)OC(=O)Nc5ccnc(OCCO)c5)cc4s3)cc(C)cc2n1` [Example 388, (2R,3S)-3-((5-fluoro-2-(2-methoxy-7-methylquinoxalin-5-yl)benzo[d]thiazol-6-yl)oxy)butan-2-yl (2-(2-hydroxyethoxy)pyridin-4-yl)carbamate], the IC50 was determined as 0.7 nM.

Turning to `COc1ccc(NC(=O)OCCOc2cc3sc(-c4cc(C)cc5nc(OC)cnc45)nc3c(Cl)c2F)cn1` [Example 332, 2((4-chloro-5-fluoro-2-(2-methoxy-7-methylquinoxalin-5-yl)benzo[d]thiazol-6-yl)oxy)ethyl (6-methoxypyridin-3-yl)carbamate], the IC50 came out at 2.4 nM.
